Assay results published in US20220031871A1, “ANTIBODIES FOR CHELATED RADIONUCLIDES AND CLEARING AGENTS” (Hoffmann-La Roche Inc., priority 2018, published 2022).
Like-named read-outs stand apart in the source and are kept apart here.

How the values were obtained:
[1] = Stability of metal-DOTAM in blood (spontaneous Ca-DOTAM formation); type: in vitro ADME, human
Excerpt: (§1) The initial choice for quenching was Cu, thus replacing unchelated DOTAM with quenched, non-competing Cu-DOTAM, and a large number of studies within the CEA-PRIT program were executed using this condition. However, it was later discovered that the Cu-DOTAM complex was, in fact, not stable in vivo, and a study was undertaken to assess its stability compared with alternative quenching ions in human and mouse serum, plasma, and blood.

[2] = as above; type: in vitro ADME, mouse
Excerpt: as §1

Structure (SMILES) | spontaneous Ca-DOTAM formation [1] [%] | spontaneous Ca-DOTAM formation [2] | spontaneous Ca-DOTAM formation ([1]; human blood, 35 minutes p.i.) [%] | spontaneous Ca-DOTAM formation ([2]; mouse blood, 35 minutes p.i.) [%]
NC(=O)CN1CCN(CC(N)=O)CCN(CC(N)=O)CCN(CC(N)=O)CC1.[Zn+2] [Zn-DOTAM] | 0 | 0% | – | –
NC(=O)CN1CCN(CC(N)=O)CCN(CC(N)=O)CCN(CC(N)=O)CC1.[Pb+2] [Pb-DOTAM] | – | – | 4 | 4
NC(=O)CN1CCN(CC(N)=O)CCN(CC(N)=O)CCN(CC(N)=O)CC1.[Cu+2] [Cu-DOTAM] | ~30 | approximately 25% | – | –
